From the supplement of paper PMC10307832

Tests used:
Test in all cases: relative viability (nuclei count vs DMSO), 5 days (fraction); higher = more cells survive
BAM7 + Foretinib = compound: CCOC1=CC=CC=C1N=NC2=C(NN(C2=O)C3=NC(=CS3)C4=CC=CC=C4)C [BAM7] + COc1cc2c(Oc3ccc(NC(=O)C4(C(=O)Nc5ccc(F)cc5)CC4)cc3F)ccnc2cc1OCCCN1CCOCC1 [Foretinib] (partner 0.25 µM)
Method in brief: (§1)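 Lung cancer cell lines in 1536-well plates got either a single drug or a fixed anchor-drug dose together with five library-drug doses (not always all listed) in √10 steps, by pin tool, on the day after seeding. Nuclei were counted after 5 days, and relative viability is the treated-to-vehicle ratio of nuclei counts. Values are medians of duplicate plates.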

BAM7 + Lapatinib = compound: CCOC1=CC=CC=C1N=NC2=C(NN(C2=O)C3=NC(=CS3)C4=CC=CC=C4)C [BAM7] + CS(=O)(=O)CCNCc1ccc(-c2ccc3ncnc(Nc4ccc(OCc5cccc(F)c5)c(Cl)c4)c3c2)o1 [Lapatinib] (partner 2 µM)
Method in brief: as §1

[1] = compound: CCn1c(-c2nonc2N)nc2c(C#CC(C)(C)O)ncc(OC[C@H]3CCCNC3)c21 + Cc1nc(Nc2ncc(C(=O)Nc3c(C)cccc3Cl)s2)cc(N2CCN(CCO)CC2)n1 [Dasatinib] (partner 0.075 µM)
Method in brief: as §1

[2] = compound: CCn1c(-c2nonc2N)nc2c(C#CC(C)(C)O)ncc(OC[C@H]3CCCNC3)c21 + O=C(c1cc(Cc2n[nH]c(=O)c3ccccc23)ccc1F)N1CCN(C(=O)C2CC2)CC1 [Olaparib] (partner 8 µM)
Method in brief: as §1

UMC-11
relative viability (BAM7 + Foretinib; first compound 0.5 µM): 1.03 | relative viability (BAM7 + Foretinib; first compound 5 µM): 1.09 | relative viability (BAM7 + Foretinib; first compound 15.81 µM): 1.13 | relative viability (BAM7 + Foretinib; first compound 50 µM): 1.07 | relative viability (BAM7 + Lapatinib; first compound 0.5 µM): 1.02 | relative viability (BAM7 + Lapatinib; first compound 5 µM): 0.981 | relative viability (BAM7 + Lapatinib; first compound 15.81 µM): 1.12 | relative viability (BAM7 + Lapatinib; first compound 50 µM): 1.15 | relative viability ([1]; first compound 0.01 µM): 0.449 | relative viability ([1]; first compound 0.03162 µM): 0.498 | relative viability ([1]; first compound 0.1 µM): 0.438 | relative viability ([1]; first compound 0.3162 µM): 0.449 | relative viability ([1]; first compound 1 µM): 0.399 | relative viability ([2]; first compound 0.01 µM): 0.402 | relative viability ([2]; first compound 0.03162 µM): 0.391 | relative viability ([2]; first compound 0.1 µM): 0.655 | relative viability ([2]; first compound 0.3162 µM): 0.392 | relative viability ([2]; first compound 1 µM): 0.359
